Source: patent US20240197726A1, “NOVEL TETRAHYDROISOQUINOLINE ALKALOID COMPOUND CONTAINING MACROCYCLE” (THE UNIVERSITY OF TOKYO, priority 2021, published 2024)
Read-outs that look alike come from different tables or passages of the source.

Legend:
Format in all cases: cell-based
[1] = system: RXF-631L kidney cancer cells; assay: antitumor activity, sulforhodamine B cell growth assay, RXF-631L
Description: (§1) The THIQ compound containing a macrocyclic structure of the present invention was administered to various cancer cell lines, and the antitumor activity (Go value) was observed. Specifically, verification was performed according to the literature (Yamori, T.; Matsunaga, A.; Sato, S.; Yamazaki, K.; Komi, A.; Ishizu, K. et al. Cancer Res. 1999, 59, 4042) by the following procedure.
(§2) Cells were plated at an appropriate density in a 96-well plate in RPMI 1640 together with 5% fetal bovine serum, and adhered overnight. The cells were exposed to a drug for 48 hours. Then, according to the sulforhodamine B assay described by Skehan et al (Skehan P., Storeng R., Scudiero D., Monks A., McMahon J., Vistica D., Warren J. T., Bokesch H., Kenney S., Boyd M. R. J Natl. Cancer Inst, 1990, 82, 1107-1112), the cell growth rate was measured. The absorbance of the control well (C) and the test well (T) was measured at 525 nm. In addition, the time at which the drug was added was set as time 0, and the absorbance for the test well (T0) was measured. Using these measured values, the cell growth inhibitory effect (% growth=PG) was calculated by the following formula at each concentration of the drug.
(§3) (T<T0): PG=100×[(T−T0)/T]
(§4) The PG values determined above for each cell line were plotted against the concentration (logarithm) on a semi-logarithmic graph, and summarized for each visceral cancer. Concentrations at which the dose-response curve of each cell line crossed the horizontal line of PG=50%, 0%, or −50% were calculated. These concentrations were defined as Log GI50, Log TGI, and Log LC50. Actually, using two data points of the drug concentration before and after crossing each horizontal line, the drug concentration (logarithmic value) at the intersection of the straight line connecting the two points and the horizontal line for each PG was calculated.

[2] = system: MCF-7 breast cancer cells; assay: antitumor activity, sulforhodamine B cell growth assay, MCF-7
Description: as §1, §2, §3, §4

[3] = system: PC-3 prostate cancer cells; assay: antitumor activity, sulforhodamine B cell growth assay, PC-3
Description: as §1, §2, §3, §4

[4] = system: OVCAR-5 cervical cancer cells; assay: antitumor activity, sulforhodamine B cell growth assay, OVCAR-5
Description: as §1, §2, §3, §4

SK-OV-3 cancer cells = assay: antitumor activity, sulforhodamine B cell growth assay, SK-OV-3
Description: as §1, §2, §3, §4

A549 lung cancer cells = assay: antitumor activity, sulforhodamine B cell growth assay, A549
Description: as §1, §2, §3, §4

[5] = system: MDA-MB-231 breast cancer cells; assay: antitumor activity, sulforhodamine B cell growth assay, MDA-MB-231
Description: as §1, §2, §3, §4

[6] = system: SNB-75 central nervous system cancer cells; assay: antitumor activity, sulforhodamine B cell growth assay, SNB-75
Description: as §1, §2, §3, §4

OVCAR-4 cancer cells = assay: antitumor activity, sulforhodamine B cell growth assay, OVCAR-4
Description: as §1, §2, §3, §4

[7] = system: HT-29 colorectal cancer cells; assay: antitumor activity, sulforhodamine B cell growth assay, HT-29
Description: as §1, §2, §3, §4

[8] = system: DU-145 prostate cancer cells; assay: antitumor activity, sulforhodamine B cell growth assay, DU-145
Description: as §1, §2, §3, §4

[9] = system: MKN74 gastric cancer cells; assay: antitumor activity, sulforhodamine B cell growth assay, MKN74
Description: as §1, §2, §3, §4

[10] = system: NCI-H23 lung cancer cells; assay: antitumor activity, sulforhodamine B cell growth assay, NCI-H23
Description: as §1, §2, §3, §4

[11] = system: SF-295 central nervous system cancer cells; assay: antitumor activity, sulforhodamine B cell growth assay, SF-295
Description: as §1, §2, §3, §4

[12] = system: NCI-H522 lung cancer cells; assay: antitumor activity, sulforhodamine B cell growth assay, NCI-H522
Description: as §1, §2, §3, §4

[13] = system: MKN-A gastric cancer cells; assay: antitumor activity, sulforhodamine B cell growth assay, MKN-A
Description: as §1, §2, §3, §4

[14] = system: SF-539 central nervous system cancer cells; assay: antitumor activity, sulforhodamine B cell growth assay, SF-539
Description: as §1, §2, §3, §4

[15] = system: NCI-H226 lung cancer cells; assay: antitumor activity, sulforhodamine B cell growth assay, NCI-H226
Description: as §1, §2, §3, §4

[16] = RXF-631L kidney cancer cells, read-out: antitumor activity GI50 value: 50% growth inhibitory concentration
[17] = Homo sapiens, MCF7, MCF-7 breast cancer cells, read-out: antitumor activity GI50 value: 50% growth inhibitory concentration
[18] = PC-3 prostate cancer cells, read-out: antitumor activity GI50 value: 50% growth inhibitory concentration
[19] = Homo sapiens, OVCAR-5 cervical cancer cells, read-out: antitumor activity GI50 value: 50% growth inhibitory concentration
[20] = Homo sapiens, SK-OV-3 cervical cancer cells, read-out: antitumor activity GI50 value: 50% growth inhibitory concentration
[21] = Homo sapiens, A549 lung cancer cells, read-out: antitumor activity GI50 value: 50% growth inhibitory concentration
[22] = Homo sapiens, MDA-MB-231 breast cancer cells, read-out: antitumor activity GI50 value: 50% growth inhibitory concentration
[23] = Homo sapiens, SNB-75 central nervous system cancer cells, read-out: antitumor activity GI50 value: 50% growth inhibitory concentration
[24] = Homo sapiens, OVCAR-4 cervical cancer cells, read-out: antitumor activity GI50 value: 50% growth inhibitory concentration
[25] = Homo sapiens, HT-29 colorectal cancer cells, read-out: antitumor activity GI50 value: 50% growth inhibitory concentration
[26] = Homo sapiens, DU-145 prostate cancer cells, read-out: antitumor activity GI50 value: 50% growth inhibitory concentration
[27] = Homo sapiens, MKN-74, MKN74 gastric cancer cells, read-out: antitumor activity GI50 value: 50% growth inhibitory concentration
[28] = Homo sapiens, NCI-H23, NCl-H23 lung cancer cells, read-out: antitumor activity GI50 value: 50% growth inhibitory concentration
[29] = Homo sapiens, SF-295 central nervous system cancer cells, read-out: antitumor activity GI50 value: 50% growth inhibitory concentration
[30] = Homo sapiens, NCI-H522, NCl-H522 lung cancer cells, read-out: antitumor activity GI50 value: 50% growth inhibitory concentration
[31] = MKN-A gastric cancer cells, read-out: antitumor activity GI50 value: 50% growth inhibitory concentration
[32] = Homo sapiens, SF-539 central nervous system cancer cells, read-out: antitumor activity GI50 value: 50% growth inhibitory concentration
[33] = Homo sapiens, NCI-H226, NCl-H226 lung cancer cells, read-out: antitumor activity GI50 value: 50% growth inhibitory concentration

Compound	GI50 [1, 16] [nM]	GI50 [2, 17] [nM]	GI50 [3, 18] [nM]	GI50 [4, 19] [nM]	GI50 (SK-OV-3 cancer cells; [20]) [nM]	GI50 (A549 lung cancer cells; [21]) [nM]	GI50 [5, 22] [nM]	GI50 [6, 23] [nM]	GI50 (OVCAR-4 cancer cells; [24]) [nM]	GI50 [7, 25] [nM]	GI50 [8, 26] [nM]	GI50 [9, 27] [nM]	GI50 [10, 28] [nM]	GI50 [11, 29] [nM]	GI50 [12, 30] [nM]	GI50 [13, 31] [nM]	GI50 [14, 32] [nM]	GI50 [15, 33] [nM]	also measured
C#CCN1C/C=C/COc2c(C)c3c(c4c2C[C@H]2[C@H]5c6c(cc(C)c(OC)c6O)C[C@@H]([C@H](C#N)N2C4CNC(=O)[C@@H]1C)N5C)OCO3 [Compound 44]	< 10	< 10	< 10	< 10	< 10	< 10	< 10	< 10	< 10	< 10	< 10	< 10	< 10	< 10	< 10	< 10	< 10	< 10	–
C#CCN1C(=O)[C@H]2[C@@H]3C=C(COc4c(C)c5c(c6c4C[C@H]4[C@H]7c8c(cc(C)c(OC)c8O)C[C@@H]([C@H](C#N)N4C6CNC(=O)[C@H](C)NC(=O)OC3)N7C)OCO5)C[C@H]2C1=O [Compound 47]	2100	63	1500	2800	3900	3900	180	330	3500	490	3900	1500	850	1800	29	1400	290	2300	–
COC1=C(C)C(=O)C2=C(C1=O)[C@H](CNC(=O)[C@H](C)N)N1C(C2)[C@H]2c3c(cc(C)c(OC)c3O)C[C@@H]([C@@H]1C#N)N2C (stereo partly drawn) [Cyanosafracin B, reference compound]	–	–	–	–	–	–	–	–	–	–	–	–	–	–	–	–	–	–	GI50 ([1]; RXF-631L, drug exposure 48 hours, read-out: GI50 value: 50% growth inhibitory concentration): 400 nM; GI50 ([2]; MCF-7, drug exposure 48 hours, read-out: GI50 value: 50% growth inhibitory concentration): 52 nM; GI50 ([3]; PC-3, drug exposure 48 hours, read-out: GI50 value: 50% growth inhibitory concentration): 290 nM; GI50 ([4]; OVCAR-5, drug exposure 48 hours, read-out: GI50 value: 50% growth inhibitory concentration): 390 nM; GI50 (SK-OV-3 cancer cells; SK-OV-3, drug exposure 48 hours, read-out: GI50 value: 50% growth inhibitory concentration): 540 nM; GI50 (A549 lung cancer cells; A549, drug exposure 48 hours, read-out: GI50 value: 50% growth inhibitory concentration): 1600 nM; GI50 ([5]; MDA-MB-231, drug exposure 48 hours, read-out: GI50 value: 50% growth inhibitory concentration): 130 nM; GI50 ([6]; SNB-75, drug exposure 48 hours, read-out: GI50 value: 50% growth inhibitory concentration): 150 nM; GI50 (OVCAR-4 cancer cells; OVCAR-4, drug exposure 48 hours, read-out: GI50 value: 50% growth inhibitory concentration): 290 nM; GI50 ([7]; HT-29, drug exposure 48 hours, read-out: GI50 value: 50% growth inhibitory concentration): 190 nM; GI50 ([8]; DU-145, drug exposure 48 hours, read-out: GI50 value: 50% growth inhibitory concentration): 490 nM; GI50 ([9]; MKN74, drug exposure 48 hours, read-out: GI50 value: 50% growth inhibitory concentration): 310 nM; GI50 ([10]; NCI-H23, drug exposure 48 hours, read-out: GI50 value: 50% growth inhibitory concentration): 290 nM; GI50 ([11]; SF-295, drug exposure 48 hours, read-out: GI50 value: 50% growth inhibitory concentration): 500 nM; GI50 ([12]; NCI-H522, drug exposure 48 hours, read-out: GI50 value: 50% growth inhibitory concentration): 43 nM; GI50 ([13]; MKN-A, drug exposure 48 hours, read-out: GI50 value: 50% growth inhibitory concentration): 250 nM; GI50 ([14]; SF-539, drug exposure 48 hours, read-out: GI50 value: 50% growth inhibitory concentration): 180 nM; GI50 ([15]; NCI-H226, drug exposure 48 hours, read-out: GI50 value: 50% growth inhibitory concentration): 310 nM
CC1=C(C)C(=O)C2=C(CC3(C)[C@H]4c5c(cc(C)c(C)c5C)C[C@@](C)(C(C)N3[C@H]2CNC(=O)C(C)C)N4C)C1=O (stereo partly drawn) [drawing 160]	400	52	290	390	540	1600	130	150	290	190	490	310	290	500	43	250	180	310	–
